Measurements taken from ChEMBL document CHEMBL1151921 (Bioorg Med Chem, 2009).

How the values were obtained:
D(2) dopamine receptor = D(2) dopamine receptor (Rattus norvegicus, UniProt P61169); test: Displacement of [3H]spiperone from rat dopamine D2L receptor expressed in HEK293 cells; assay type: cell-based
D(3) dopamine receptor = D(3) dopamine receptor (Rattus norvegicus, UniProt P19020); test: biochemical
[1] = target: D(2) dopamine receptor (Homo sapiens) (UniProt P14416); test: Activity at human dopamine D2L receptor expressed in CHO cells assessed as stimulation of [35S]GTPgammaS binding relative to dopamine; assay type: functional, cell-based
Sequence of D(2) dopamine receptor (Homo sapiens) (P14416 whole entry): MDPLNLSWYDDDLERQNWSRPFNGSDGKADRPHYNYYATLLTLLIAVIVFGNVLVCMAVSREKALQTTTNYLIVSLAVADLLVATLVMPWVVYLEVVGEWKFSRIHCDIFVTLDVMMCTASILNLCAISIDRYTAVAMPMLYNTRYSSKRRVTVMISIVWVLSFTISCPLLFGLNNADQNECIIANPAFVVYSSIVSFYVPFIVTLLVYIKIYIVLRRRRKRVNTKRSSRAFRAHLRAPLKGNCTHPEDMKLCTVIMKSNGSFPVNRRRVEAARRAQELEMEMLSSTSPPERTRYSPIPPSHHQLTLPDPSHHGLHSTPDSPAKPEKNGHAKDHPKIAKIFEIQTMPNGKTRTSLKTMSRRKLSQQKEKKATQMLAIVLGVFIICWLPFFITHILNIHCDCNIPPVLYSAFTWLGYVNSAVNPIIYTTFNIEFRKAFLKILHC

Sequence of D(2) dopamine receptor (P61169 whole entry): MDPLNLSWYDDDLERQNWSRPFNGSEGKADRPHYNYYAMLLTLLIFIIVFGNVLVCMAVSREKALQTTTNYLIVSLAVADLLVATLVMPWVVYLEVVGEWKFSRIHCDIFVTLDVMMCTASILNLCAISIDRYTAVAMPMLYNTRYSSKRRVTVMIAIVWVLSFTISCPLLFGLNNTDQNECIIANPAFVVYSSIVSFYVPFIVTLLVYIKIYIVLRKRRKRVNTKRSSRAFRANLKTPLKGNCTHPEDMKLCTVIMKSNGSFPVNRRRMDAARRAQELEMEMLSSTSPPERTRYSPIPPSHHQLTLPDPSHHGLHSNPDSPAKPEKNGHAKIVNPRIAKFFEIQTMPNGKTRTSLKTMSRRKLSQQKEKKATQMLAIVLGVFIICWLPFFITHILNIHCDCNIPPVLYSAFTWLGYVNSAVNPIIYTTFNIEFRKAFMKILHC
Sequence of D(3) dopamine receptor (P19020 whole entry): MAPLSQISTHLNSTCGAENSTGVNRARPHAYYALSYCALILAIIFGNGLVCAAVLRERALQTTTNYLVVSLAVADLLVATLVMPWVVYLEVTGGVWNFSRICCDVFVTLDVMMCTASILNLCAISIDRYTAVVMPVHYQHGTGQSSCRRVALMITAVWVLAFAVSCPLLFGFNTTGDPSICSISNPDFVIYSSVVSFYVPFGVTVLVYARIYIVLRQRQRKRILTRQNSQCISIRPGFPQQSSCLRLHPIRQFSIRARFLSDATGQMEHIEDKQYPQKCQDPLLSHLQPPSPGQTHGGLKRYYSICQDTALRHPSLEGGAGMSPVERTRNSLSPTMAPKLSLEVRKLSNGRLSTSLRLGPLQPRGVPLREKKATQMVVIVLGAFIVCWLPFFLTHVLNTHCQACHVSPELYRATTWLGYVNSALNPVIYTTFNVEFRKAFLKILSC

Structure (SMILES)	Ki (D(2) dopamine receptor)	Ki (D(3) dopamine receptor)	Emax [1]
CCCN(CCN1CCN(c2ccc(-c3ccccc3)cc2)CC1)[C@H]1CCc2nc(N)sc2C1	264 nM	–	–
CCCN(CCN1CCN(C(=O)c2cc3ccccc3o2)CC1)C1CCc2c(O)cccc2C1 (stereo not drawn)	132 nM	5.23 nM	–
CCCN(CCN1CCN(Cc2cc3ccccc3[nH]2)CC1)C1CCc2ccc(O)cc2C1 (stereo not drawn)	100 nM	4.82 nM	–
CCCN(CCC)C1CCc2c(O)cccc2C1 (stereo not drawn)	–	–	77.8%
CCCN(CCN1CCN(C(=O)c2ccc3[nH]ccc3c2)CC1)[C@H]1CCc2c(O)cccc2C1	–	–	80%
CCCN(CCN1CCN(C(=O)c2ccc3[nH]ccc3c2)CC1)C1CCc2ccc(O)cc2C1 (stereo not drawn)	65.9 nM	–	–
